Source: patent US9493412B2, “Pyrrolinone carboxamide compounds useful as endothelial lipase inhibitors” (BRISTOL-MYERS SQUIBB COMPANY, priority 2011, dated 2016)

molecular target: endothelial lipase (EL) (Homo sapiens (Human), UniProt Q9Y5X9); assay: Endothelial lipase (EL) enzymatic assay with fluorescent substrate A10070 in DMPG vesicles; assay type: biochemical; conditions: conditioned media from HT-1080 cells overexpressing endogenous EL; 20 min preincubation at 37° C.; read-out: HLE_EL_CRC IC50
Sequence (Q9Y5X9 21-500): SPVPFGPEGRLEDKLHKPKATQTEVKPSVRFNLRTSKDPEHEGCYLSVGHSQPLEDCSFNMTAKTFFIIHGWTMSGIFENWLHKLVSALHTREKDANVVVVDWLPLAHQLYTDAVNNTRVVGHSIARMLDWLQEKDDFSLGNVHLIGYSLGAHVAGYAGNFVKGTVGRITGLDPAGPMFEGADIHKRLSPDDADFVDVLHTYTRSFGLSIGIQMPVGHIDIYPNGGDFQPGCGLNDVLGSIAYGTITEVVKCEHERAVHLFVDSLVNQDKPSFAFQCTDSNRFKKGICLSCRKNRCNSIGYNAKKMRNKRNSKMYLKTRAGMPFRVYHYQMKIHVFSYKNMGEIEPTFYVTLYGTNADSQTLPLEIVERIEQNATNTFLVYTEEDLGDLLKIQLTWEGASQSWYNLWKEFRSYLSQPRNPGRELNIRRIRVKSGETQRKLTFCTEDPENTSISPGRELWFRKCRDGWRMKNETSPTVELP
Method: Endothelial lipase activity was measured using a fluorescent substrate, A10070, (Invitrogen, CA) doped into an artificial vesicle containing DMPG (Avanti Polar Lipids) as the excipient. Vesicles were prepared by combining 285 uL of 1 mM
DMPG in a 1:1 mixture of MeOH and CHCl3 with 15 uL of 1 mM A10070 in a 1:1 mixture of MeOH and CHCl3. The mixture was dried under nitrogen and resuspended in 150 uL of 50 mM HEPES pH 8.0 buffer containing 100 mM NaCl and 0.2 mM EDTA. The sample was allowed to sit at rt for 15 min and then was sonicated 3×4 mins on ice with a Branson Sonicator using duty cycle 1. This preparation provides vesicles with a mole fraction of 0.05 for the FRET substrate.
The enzymatic assay was measured using white, opaque 96-well half area plates. Each well contained 60 uL of assay buffer (50 mM HEPES pH 8.0, 50 mM NaCl and 1 mM CaCl2) and 2 ul of a DMSO solution containing compound of interest. Conditioned media obtained from HT-1080 cells, which were transformed by RAGE technology (Athersys) to overexpress endogenous EL, was added and the reaction was allowed to incubate for 20 min at 37° C. with gentle agitation. The reaction was started by the addition of 20 uL of a 1:4 dilution of vesicles. The final total reaction volume was 100 uL. The reaction rates were measured on a Gemini plate reader with an excitation wavelength of 488 nm and a emission of 530 nm. Readings were taken every 20 seconds for 10 min with agitation between each reading. The slope of the linear portion of the readout was used to calculate the rate of the reaction.
The exemplified examples disclosed in the present invention were tested in the EL assay described above and found having EL inhibitory activity.

Point of comparison: CCN1CC(C(=O)N[C@@H]2CCC(c3ccccc3)c3ccccc32)=C(O)C1=O (stereo partly drawn) [Example 146, 1-ethyl-4-hydroxy-5-oxo-N-((1R)-4-phenyl-1,2,3,4-tetrahydronaphthalen-1-yl)-2,5-dihydro-1H-pyrrole-3-carboxamide], IC50 0.05 µM. Against it:
- CN1CC(C(=O)NC2CC[C@H](c3ccccc3)C2)=C(O)C1=O (single isomer, unassigned; isomer a) [Example 173] — 170-fold higher, 8.47 µM
- CN1CC(C(=O)NCc2ccc(Oc3ccc(F)cc3)cc2)=C(O)C1=O [Example 8, N-(4-(4-fluorophenoxy)benzyl)-4-hydroxy-1-methyl-5-oxo-2,5-dihydro-1H-pyrrole-3-carboxamide] — within 1.5-fold, 0.0495 µM
- CN1CC(C(=O)NCc2ccccc2-c2ccccc2)=C(O)C1=O [Example 18, N-(biphenyl-2-ylmethyl)-4-hydroxy-1-methyl-5-oxo-2,5-dihydro-1H-pyrrole-3-carboxamide] — 1.9-fold lower, 0.027 µM
- CC(C)CN1CC(C(=O)NCCCCc2nc(-c3ccc(Cl)c(Cl)c3)no2)=C(O)C1=O [Example 21, N-(4-(3-(3,4-dichlorophenyl)-1,2,4-oxadiazol-5-yl)butyl)-4-hydroxy-1-isobutyl-5-oxo-2,5-dihydro-1H-pyrrole-3-carboxamide] — 3.2-fold lower, 0.0154 µM
- CN1CC(C(=O)NCc2ccc(OC3CCOCC3)cc2)=C(O)C1=O [Example 22, 4-hydroxy-1-methyl-5-oxo-N-(4-(tetrahydro-2H-pyran-4-yloxy)benzyl)-2,5-dihydro-1H-pyrrole-3-carboxamide] — 5.4-fold higher, 0.27 µM
- CN1CC(C(=O)NCc2ccc(C(=O)N3CCCCC3)cc2)=C(O)C1=O [Example 24, 4-hydroxy-1-methyl-5-oxo-N-(4-(piperidine-1-carbonyl)benzyl)-2,5-dihydro-1H-pyrrole-3-carboxamide] — 190-fold higher, 9.29 µM
- Cc1ccc(Oc2ccc(CNC(=O)C3=C(O)C(=O)N(C)C3)cc2)c(C)c1 [Example 34, N-(4-(2,4-dimethylphenoxy)benzyl)-4-hydroxy-1-methyl-5-oxo-2,5-dihydro-1H-pyrrole-3-carboxamide] — 1.6-fold lower, 0.0321 µM
- CN1CC(C(=O)NCc2cccc(-c3ccccc3Cl)c2)=C(O)C1=O [Example 62, N-((2′-chlorobiphenyl-3-yl)methyl)-4-hydroxy-1-methyl-5-oxo-2,5-dihydro-1H-pyrrole-3-carboxamide] — 4.9-fold higher, 0.246 µM
- CN1CC(C(=O)NCc2cccc(-c3ccccc3F)c2)=C(O)C1=O [Example 63, N-((2′-fluorobiphenyl-3-yl)methyl)-4-hydroxy-1-methyl-5-oxo-2,5-dihydro-1H-pyrrole-3-carboxamide] — 5-fold higher, 0.249 µM
- CC(=O)c1cccc(-c2cccc(CNC(=O)C3=C(O)C(=O)N(C)C3)c2)c1 [Example 66, N-((3′-acetylbiphenyl-3-yl)methyl)-4-hydroxy-1-methyl-5-oxo-2,5-dihydro-1H-pyrrole-3-carboxamide] — 5.7-fold higher, 0.285 µM
- CN1CC(C(=O)NCc2cccc(-c3ccc(CNS(C)(=O)=O)cc3)c2)=C(O)C1=O [Example 83, 4-hydroxy-1-methyl-N-((4′-(methylsulfonamidomethyl)biphenyl-3-yl)methyl)-5-oxo-2,5-dihydro-1H-pyrrole-3-carboxamide] — 5.1-fold higher, 0.257 µM
- CC(=O)NCc1ccc(-c2cccc(CNC(=O)C3=C(O)C(=O)N(C)C3)c2)cc1 [Example 85, N-((4′-(acetamidomethyl)biphenyl-3-yl)methyl)-4-hydroxy-1-methyl-5-oxo-2,5-dihydro-1H-pyrrole-3-carboxamide] — 4.8-fold higher, 0.241 µM
- C[C@@H](NC(=O)C1=C(O)C(=O)N(C)C1)c1cccc(-c2cccc(C(F)(F)F)c2)c1 [Example 91, (R)-4-hydroxy-1-methyl-5-oxo-N-(1-(3′-(trifluoromethyl)biphenyl-3-yl)ethyl)-2,5-dihydro-1H-pyrrole-3-carboxamide] — 5.4-fold higher, 0.271 µM
- C[C@@H](NC(=O)C1=C(O)C(=O)N(C)C1)c1cccc(-c2cccc(F)c2)c1 [Example 92, (R)-N-(1-(3′-fluorobiphenyl-3-yl)ethyl)-4-hydroxy-1-methyl-5-oxo-2,5-dihydro-1H-pyrrole-3-carboxamide] — 4.9-fold higher, 0.246 µM
- C[C@@H](NC(=O)C1=C(O)C(=O)N(C)C1)c1cccc(-c2cccc(C#N)c2)c1 [Example 96, (R)-N-(1-(3′-cyanobiphenyl-3-yl)ethyl)-4-hydroxy-1-methyl-5-oxo-2,5-dihydro-1H-pyrrole-3-carboxamide] — 5.5-fold higher, 0.277 µM
- C[C@@H](NC(=O)C1=C(O)C(=O)N(C)C1)c1cccc(-c2cccc(C(N)=O)c2)c1 [Example 103, (R)-N-(1-(3′-carbamoylbiphenyl-3-yl)ethyl)-4-hydroxy-1-methyl-5-oxo-2,5-dihydro-1H-pyrrole-3-carboxamide] — within 1.5-fold, 0.0496 µM
- CC(=O)NCc1ccc(-c2cccc([C@@H](C)NC(=O)C3=C(O)C(=O)N(C)C3)c2)cc1 [Example 104, (R)-N-(1-(4′-(acetamidomethyl)biphenyl-3-yl)ethyl)-4-hydroxy-1-methyl-5-oxo-2,5-dihydro-1H-pyrrole-3-carboxamide] — 5.1-fold higher, 0.254 µM
- CN1CC(C(=O)NCC2CCN(C(=O)c3ccc(Cl)c(Cl)c3)CC2)=C(O)C1=O [Example 157, N-((1-(3,4-dichlorobenzoyl)piperidin-4-yl)methyl)-4-hydroxy-1-methyl-5-oxo-2,5-dihydro-1H-pyrrole-3-carboxamide] — 97-fold higher, 4.84 µM
- O=C(N[C@H]1CC[C@@H](c2ccccc2)CC1)C1=C(O)C(=O)N(CCCC(F)(F)F)C1 [Example 168, 4-hydroxy-5-oxo-N-(cis-4-phenylcyclohexyl)-1-(4,4,4-trifluorobutyl)-2,5-dihydro-1H-pyrrole-3-carboxamide] — 5-fold higher, 0.252 µM
- O=C(N[C@H]1CC[C@@H](c2ccccc2)CC1)C1=C(O)C(=O)N(CC(F)(F)C(F)(F)F)C1 [Example 169, 4-hydroxy-5-oxo-1-(2,2,3,3,3-pentafluoropropyl)-N-(cis-4-phenylcyclohexyl)-2,5-dihydro-1H-pyrrole-3-carboxamide] — 140-fold higher, 7.17 µM
- O=C(N[C@H]1CC[C@@H](c2ccccc2)CC1)C1=C(O)C(=O)N(CCS(=O)(=O)c2ccccc2)C1 [Example 172, 4-hydroxy-5-oxo-N-(cis-4-phenylcyclohexyl)-1-(2-(phenylsulfonyl)ethyl)-2,5-dihydro-1H-pyrrole-3-carboxamide] — 94-fold higher, 4.72 µM
- CN(CCN1CC(C(=O)N[C@H]2CC[C@@H](c3ccccc3)CC2)=C(O)C1=O)C(=O)/C=C/C(F)(F)F [Example 178, 4-hydroxy-5-oxo-N-(cis-4-phenylcyclohexyl)-1-(2-((E)-4,4,4-trifluoro-N-methylbut-2-enamido)ethyl)-2,5-dihydro-1H-pyrrole-3-carboxamide] — 200-fold higher, 9.92 µM
- O=C(N[C@H]1CC[C@@H](c2ccccc2)CC1)C1=C(O)C(=O)N(C2CCN(c3ccc(F)cc3)CC2)C1 [Example 179, 1-(1-(4-fluorophenyl)piperidin-4-yl)-4-hydroxy-5-oxo-N-(cis-4-phenylcyclohexyl)-2,5-dihydro-1H-pyrrole-3-carboxamide] — 62-fold higher, 3.09 µM
- CNCCCN1CC(C(=O)N[C@H]2CC[C@@H](c3ccccc3)CC2)=C(O)C1=O [Example 181, 4-hydroxy-1-(3-(methylamino)propyl)-5-oxo-N-(cis-4-phenylcyclohexyl)-2,5-dihydro-1H-pyrrole-3-carboxamide] — 110-fold higher, 5.73 µM
- CN1CC(N2CC(C(=O)N[C@H]3CC[C@@H](c4ccccc4)CC3)=C(O)C2=O)CC1=O (stereo partly drawn) [Example 196, 4-hydroxy-1-(1-methyl-5-oxopyrrolidin-3-yl)-5-oxo-N-(cis-4-phenylcyclohexyl)-2,5-dihydro-1H-pyrrole-3-carboxamide] — 160-fold higher, 8.25 µM
- CN(CCN1CC(C(=O)N[C@H]2CC[C@@H](c3ccccc3)CC2)=C(O)C1=O)c1ccccc1 [Example 210, 4-hydroxy-1-(2-(methyl(phenyl)amino)ethyl)-5-oxo-N-(cis-4-phenylcyclohexyl)-2,5-dihydro-1H-pyrrole-3-carboxamide] — 130-fold higher, 6.57 µM
- CCN1CC(C(=O)NCC2CCc3cnc(-c4ccc(Cl)c(Cl)c4)n3C2)=C(O)C1=O (centres unmarked) [Example 214, N-((3-(3,4-Dichlorophenyl)-5,6,7,8-tetrahydroimidazo[1,5-a]pyridin-6-yl)methyl)-1-ethyl-4-hydroxy-5-oxo-2,5-dihydro-1H-pyrrole-3-carboxamide] — 9.2-fold higher, 0.46 µM
- CCN1CC(C(=O)N[C@@H]2CCc3cc(-c4ccccc4)ccc32)=C(O)C1=O [Example 218, (R)-1-ethyl-4-hydroxy-5-oxo-N-(5-phenyl-2,3-dihydro-1H-inden-1-yl)-2,5-dihydro-1H-pyrrole-3-carboxamide] — within 1.5-fold, 0.0435 µM
